The source of these data is patent US20130052190A1, “CRTH2 Antagonists for Treatment of Eosinophilic Diseases and Conditions” (Oxagen Limited, priority 2011, published 2013).

Assay [1] has as its system patients with mild to moderate asthma. Put plainly: 4 week study in patients with mild to moderate asthma (FEV1). The class given is in vivo, human. The following applies: after 4 weeks, 100 mg twice daily. On the procedure:
4 Week Study in Patients with Mild to Moderate Asthma
The study was a randomized, double blind, placebo controlled study of (5-fluoro-2-methyl-3-quinolin-2-ylmethyl-indol-1-yl)-acetic acid (OC000459) for 28 days in patients with mild to moderate asthma with a FEV1 of 60-80% of predicted and requiring only short acting inhaled β2 agonists for symptomatic control. The study compared patients taking 100 mg of OC000459 twice daily with patients taking a placebo twice daily. The study consisted of 112 patients with 53 patients taking OC000459 and 59 patients taking the placebo.
1. Males and females aged 18-55 years. 2. Asthma controlled by short-acting β2 agonists only. 3. Mild to moderate persistent asthma according to GINA4 guidelines for at least 12 months. 4. Non-smokers for at least the past 12 months with a pack history of less than 10 pack years. 5. History of asthma symptoms increasing in response to external allergens. 6. Testing positive on skin prick test to an allergen associated with the patient's allergen.
1. Receipt of prescribed or over-the-counter medication within 14 days prior to the first study day. 2. Use of inhaled or local corticosteroids in the period 28 days prior to screening.

Assay [2] relates to patients with mild to moderate persistent asthma. Put plainly: 12 week study in patients with mild to moderate persistent asthma (FEV1). The class given is in vivo, human. The following applies: for FEV1 Improvement: 12 weeks, patient population on OC000459; for improvement in FEV1 over patients given the placebo / improvement in FEV1 over baseline: after 12 weeks. On the procedure: 12 Week Study in Patients with Mild to Moderate Persistent Asthma
The study was a randomized, double blind, placebo controlled, four arm study of three dosage levels of (5-fluoro-2-methyl-3-quinolin-2-ylmethyl-indol-1-yl)-acetic acid (OC000459) tablets in patients with asthma controlled by β2 agonists alone. The study compared patients on OC000459 at three different dose levels (25 mg once daily, 100 mg twice daily, and 200 mg once daily) with patients on placebo after dosing for 12 weeks. The study consisted of 460 patients which yielded 440 evaluable results with 110 patients per arm. There was a screening period of 1 to 2 weeks, followed by placebo run-in for 3 weeks before the treatment period. There was a placebo wash-out for two weeks following the treatment period with a follow-up 3 to 5 weeks after the treatment period.
1. Males and females aged 18-55 years. 2. Asthma controlled by short-acting β2 agonists only. 3. Mild to moderate persistent asthma according to GINA4 guidelines for at least 12 months. 4. Non-smokers for at least the past 12 months with a pack history of less than 10 pack years.
Receipt of prescribed or over-the-counter medication within 14 days prior to the first study day.
1. Morning FEV1 of 60-85% of predicted. 2. Reversibility of ≧12% after salbutamol. 3. Greater than 1 puff per day of salbutamol required.

[3] abbreviates: blood eosinophil count greater than or equal to 250/μL, FIG. 6(b).
The mark [4] stands for this setting: full population (112 patients), FIG. 6(a).
Where [5] appears, read: FEV1 60-80% of predicted and positive skin prick test at baseline, FIG. 1.
Setting [6] is: FEV1 60-80% of predicted, blood eosinophil count greater than or equal to 250/μL, positive skin prick test, FIG. 2.

As to `Cc1c(Cc2ccc3ccccc3n2)c2cc(F)ccc2n1CC(=O)O` [OC000459, (5-fluoro-2-methyl-3-quinolin-2-ylmethyl-indol-1-yl)-acetic acid], the “improvement in FEV1 over baseline” value is on record as 250 mL in assay [1] (setting [3]), 190 mL in assay [1] (setting [4]), 191 mL in assay [2] (setting [5]) and 184 mL in assay [2] (setting [6]). The “improvement in FEV1 over patients given the placebo” value is recorded as 180 mL in assay [1] (setting [3]); “only a small improvement” in assay [1] (blood eosinophil count less than 250/μL, FIG. 6(c)); 100 mL in assay [1] (setting [4]); 140 mL in assay [2] (ACQ score greater than or equal to 1.5 at baseline, FIG. 4); 30 mL in assay [2] (ACQ score less than 1.5 at baseline, FIG. 5); 130 mL in assay [2] (setting [5]). Also, the “improvement in FEV1 over patients given the placebo” value in assay [2] (setting [6]) was 188 mL; in assay [2] (FEV1 60-80% of predicted, blood eosinophil count less than 250/μL, positive skin prick test, FIG. 3), 76 mL. Moreover, the “FEV1 Improvement” value in assay [2] (60-80% FEV1 Atopic) was determined as 130 mL; in assay [2] (All-Comers) it was 100 mL; in assay [2] (Hi-eosinophil count (>250/μL)), 188 mL.
